Experimental data published in patent publication US20100226857A1, “TUMOR CELL DIFFERENTIATION AGENTS AS CHEMICAL INHIBITORS AND TREATMENTS FOR INTRACELLULAR PARASITES” (priority 2006, published 2010).
Converted amounts (≈) assume the structure as drawn. Where two headings read alike, the source gives them in different places.

Assays:
T. gondii tachyzoites [1] = test: T. gondii tachyzoite proliferation assay in HS68 cells (tachyzoite count); assay type: cell-based, Toxoplasma gondii
Procedure: Parasite propagation—The RH strain of Toxoplasma gondii was grown in BM bovine macrophage cells or HS68 human foreskin fibroblast cells obtained from the American Type Culture Collection (Rockville, Md.). HS68 cells were grown in RPMI 1640 medium (Mediatech, Inc., Herndon, Va.) plus 10% fetal bovine serum (Atlanta Biologicals, Lawrenceville, Ga.), 1 mM sodium pyruvate and 100 U/ml each of penicillin and streptomycin. Parasites were harvested from infected cultures of HS68 cells growing in T-75 cm^2 flasks. After removing the culture medium, the cells were scraped into 5 ml of phosphate-buffered saline and a cell lysate obtained by passing through a 26-gauge needle. To purify the parasites, the cell lysate was filtered through a 3 micron (micrometer) filter.
(§1) Proliferation assays: HS68 cells were replica plated in 48-well dishes, and grown to confluence prior to infection with 5-10×10^4 freshly purified T. gondii tachyzoites/well. After 2 hours, the media and non-infective tachyzoites were removed, and replaced with RPMI medium containing 2% fetal bovine serum plus 1 mM sodium pyruvate, penicillin (100 U), streptomycin (100 U) and test agent or a vehicle control. The proliferation assays were terminated 48-72 hours post-infection when the untreated cells were heavily infected. All of the culture media were removed from the wells, and the tachyzoites in the media were fixed by dilution (1:1) into phosphate-buffered saline containing 10% formaldehyde. The tachyzoites were collected by brief centrifugation (30 seconds, […]) at room temperature using a tabletop microfuge. The tachyzoites were resuspended in 100 ul of phosphate-buffered saline, and duplicate aliquots were counted using a hemocytometer. […] The monolayer of HS68 cells in each well was fixed and stained for 5 minutes using a solution of 50% ethanol-5% formaldehyde-0.1% crystal violet in 0.85% sodium chloride, then rinsed with water, and air-dried. The minimum inhibitory concentration (MIC) of compounds that suppressed Toxoplasma-induced lysis of the HS68 cells was determined visually by counting the number of plaques/well in the monolayer.

T. gondii = test: Plaque suppression / protection of HS68 monolayer from T. gondii; assay type: cell-based, Toxoplasma gondii; conditions: for MIC IC50 (ratio MIC/IC50): MIC plaque suppression relative to IC50 tachyzoite count; for MIC (uM) Plaque Suppression / MIC: RH strain T. gondii in HS68 cells, 48-well plate, mean+/-SEM; for MIC: Toxoplasma gondii, read-out: MIC (uM) Plaque Suppression
Procedure: as §1

[2] = test system: HS68 human foreskin fibroblast cells; test: Toxicity to HS68 host cells; assay type: cell-based
T. gondii tachyzoites [3] = test: In vivo acute toxoplasmosis in mice (survival); parameters: species or system Toxoplasma gondii; CD-1 mice; conditions: for control of acute toxoplasmosis in mice: TSA 0.5 mg/kg, SAHA 50 mg/kg, scriptaid 3.5 mg/kg i.p. once daily, valproic acid 300 mg/kg oral daily; for median survival: mice
Procedure: Specifically, female CD-1 mice (20 g) were inoculated in the sub-scapular region with 5,000 T. gondii tachyzoites on Day 0. […] The dose of scriptaid was not optimized in this experiment. In this study, valproic acid was administered orally in the drinking water at a dose of 300 mg/kg. Survival was monitored twice daily beginning on day 9 of the study. The results are depicted graphically in FIG. 5A and in tabular form in FIG. 5B.

[4] = test system: MCF-7 human breast cancer cells; test: ESR free radical (ROS) measurement in MCF-7 cell suspensions with DMPO; assay type: cell-based; conditions: 200 nM, 1×10^6 MCF-7 cells, 5 min at 37° C.
Procedure: Free Radical Measurements: All ESR measurements were conducted using a Bruker EMIR spectrometer (Bruker Instruments Inc., Billerica, Mass.) and a flat-cell assembly. Hyperfine couplings were measured (to 0.1 G) directly from magnetic field separation using potassium tetraperoxochromate (K3CrO8) and 1,1-diphenyl-2-picrylhydrazyl as reference standards. The relative radical concentration was estimated by multiplying half of the peak height by (ΔHpp)^2, where (ΔHpp) represents peak-to-peak width. The Acquisit program was used for data acquisitions and analyses. MCF-7 cells (2.0×10^6 cells/60-mm^2 dish) were harvested 48 h after plating by trypsinization and collected at room temperature by centnfugation (225 g, 5 min). Cells were washed once with ice-cold PBS and resuspended in ice-cold PBS at 2×10^6 cells/ml. Radical production was measured in the presence of the spin trap 5,5-dimethyl-1-pyrroline-N-oxide (DMPO; Aldrich Chemical Co., Milwaukee, Wis.). DMPO (200 mM) and 1×10^6 cells test agents were mixed in 1.0 ml of PBS, incubated at 37° C. for 5 mm, and then transferred to a flat cell for ESR measurements.

human tumor cell lines = conditions: cited from earlier work
Cryptosporidium parvum = test: Real-time PCR analysis of C. parvum oocyst production in infected HCT-8 cells; assay type: cell-based; conditions: 48 hours, apicidin 70 ng/ml, SAHA 2.5 ug/ml
Procedure: Monolayer cultures of HCT-8 human colon cells growing in 24-well plastic tissue culture dishes were infected with C. parvum oocysts for 3 hours. […] The cells were harvested, and DNA was extracted. The DNA was analyzed for the production of C. parvum oocysts from the infected cells using real-time PCR and DNA primers that specifically amplify the C. parvum oocysts wall protein (COWP).

[5] = RH strain T. gondii in HS68 cells, 48-well plate, 48-72 hours post-infection, mean+/-SEM, read-out: IC50 (uM) Tachyzoite Count
[6] = Toxoplasma gondii, RH strain T. gondii in HS68 cells, 48-well plate, 48-72 hours post-infection, mean+/-SEM, read-out: IC50 (uM) Tachyzoite Count

CC(/C=C/C(=O)NO)=C\[C@@H](C)C(=O)c1ccc(N(C)C)cc1 [TSA, trichostatin A]
IC50 (T. gondii tachyzoites [1]; [5]): 0.041 ± 0.001 µM
concentration that eliminated tachyzoites and plaque formation (T. gondii tachyzoites [1]; T. gondii infected HS68 cells): 200 nM
concentrations giving dramatic decrease in tachyzoite numbers (T. gondii tachyzoites [1]; p<0.05): > 100 nM
MIC IC50 (ratio MIC/IC50) (T. gondii): 4.3
MIC (uM) Plaque Suppression (T. gondii): 0.175 ± 0.025 µM (≈ 0.0529 µg/mL)
concentration at which apoptotic HS68 cells were evident [2]: 0.5 µM
control of acute toxoplasmosis in mice (T. gondii tachyzoites [3]): showed in vivo efficacy
relative peak heights of the ESR signals (mean±range, n=2) [4]: 99±1 mm

CCCC(CCC)C(=O)[O-].[Na+] [Valproic acid, sodium valproate]
IC50 (T. gondii tachyzoites [1]; [6]): 1600 ± 1120 µM
IC50 (T. gondii tachyzoites [1]; Toxoplasma gondii, RH strain in HS68 cells, read-out: IC50 range of carboxylate inhibitors): 1000 to 5000 µM
MIC IC50 (ratio MIC/IC50) (T. gondii): 5.2
MIC (T. gondii): 8300 ± 1000 µM
control of acute toxoplasmosis in mice (T. gondii tachyzoites [3]): ineffective
therapeutic effect against RH T. gondii in mice (T. gondii tachyzoites [3]; doses up to 600 mg/kg/day, oral or intraperitoneal): not therapeutic
median survival (T. gondii tachyzoites [3]; i.p. 400 mg/kg and 600 mg/kg divided into 2 daily doses): 10 days
median survival (T. gondii tachyzoites [3]; oral dose of 600 mg/kg): 12 days

NC(=O)c1cccnc1 [nicotinamide]
activity against T. gondii in in vitro assays (T. gondii tachyzoites [1]): minimal activity

4-phenylbutyrate
IC50 (T. gondii tachyzoites [1]; [5]): 5350 ± 2750 µM
MIC IC50 (ratio MIC/IC50) (T. gondii): 3.1
MIC (uM) Plaque Suppression (T. gondii): 16,700 ± 3300 uM

O=C(CCCCCN1C(=O)c2cccc3cccc(c23)C1=O)NO [Scriptaid]
IC50 (T. gondii tachyzoites [1]; [6]): 0.039 ± 0.011 µM
IC50 (T. gondii tachyzoites [1]; Toxoplasma gondii, RH strain in HS68 cells, average of independent experiments, read-out: IC50 T. gondii tachyzoites): 0.037 µM
low concentrations stimulating tachyzoite numbers (T. gondii tachyzoites [1]; biphasic response, FIG. 4): 1 to 10 nM
times tachyzoites are more sensitive than human tumor cells (T. gondii tachyzoites [1]; tachyzoite IC50 vs literature tumor cell concentrations): 80-1500 times
state of HS68 monolayer of T. gondii-infected treated cells (T. gondii; 1 uM, 48 hours): completely intact
MIC IC50 (ratio MIC/IC50) (T. gondii): 5.8
MIC (T. gondii): 0.225 ± 0.025 µM (≈ 0.0734 µg/mL)
toxicity to HS68 cells at highest concentration tested ([2]; 10 uM): non-toxic
control of acute toxoplasmosis in mice (T. gondii tachyzoites [3]): showed in vivo efficacy
daily dose that can extend the life of mice infected with RH T. gondii (T. gondii tachyzoites [3]; for 14 days): about 3.5 mg/kg
IC50 levels reducing tumor cell proliferation in vitro (human tumor cell lines): 1 to 20 mg/L
IC50 (human tumor cell lines; read-out: IC50 levels reducing tumor cell proliferation in vitro): 3 to 60 µM

CCC(=O)CCCCC[C@@H]1NC(=O)[C@H]2CCCCN2C(=O)[C@H]([C@@H](C)CC)NC(=O)[C@H](Cc2cn(OC)c3ccccc23)NC1=O [Apicidin]
number of oocysts/ml (mean ± S.D. n = 6) (Cryptosporidium parvum): 517.7 ± 417.1 oocysts/ml
% Reduction in oocysts numbers (Cryptosporidium parvum; vs 0.1% DMSO): 92.2%
